Measured values from article PMC4818757, “Small molecule inhibitors of the Dishevelled‐CXXC5 interaction are new drug candidates for bone anabolic osteoporosis therapy” (EMBO Molecular Medicine, 2016).
Like-named read-outs stand apart in the source and are kept apart here.

What was measured:
[1] = system: MC3T3E1 cells; test: β-catenin and Runx2 immunoblot/immunofluorescence in MC3T3E1 cells; type: cell-based, murine; conditions: 2 days, dose‐dependent
Experimental: Figure 5 Effects of KY‐02327 on Wnt/β‐catenin pathway and osteoblast differentiation in osteoblasts • A MC3T3E1 cells were transfected with pTOPFLASH together with pCMV‐β‐gal. After 24 h, the cells were treated with indicated dose of KY‐02327 for 2 days. The luciferase activities of whole‐cell lysates were measured and normalized with β‐galactosidase activities. (n = 3) • B, C MC3T3E1 cells were treated with indicated concentrations of KY‐02327 for 2 days. β‐Catenin and α‐tubulin were detected by immunoblot (B) or immunofluorescence (C) analyses. Nuclei were counterstained with DAPI (C, blue). Scale bars, 100 μm. • D MC3T3E1 cells were treated with indicated concentrations of KY‐02327 for 14 days. The mRNA level of collagen 1a (Col1a) was measured by quantitative real‐time PCR (qRT–PCR). (n = 3) • E MC3T3E1 cells were treated with indicated concentrations of KY‐02327 for 21 days. The mRNA level of osteocalcin (OCN) was measured by qRT–PCR. (n = 3) Data Information: For A, D, and E, the data are the mean ± s.d. (error bars), and significance was assessed using unpaired Student's t‐test. […]

[2] = system: MC3T3E1 cells; test: qRT-PCR of osteoblast differentiation markers in MC3T3E1 cells; type: cell-based, murine; conditions: dose‐dependent
Experimental: Figure 5 Effects of KY‐02327 on Wnt/β‐catenin pathway and osteoblast differentiation in osteoblasts • A MC3T3E1 cells were transfected with pTOPFLASH together with pCMV‐β‐gal. After 24 h, the cells were treated with indicated dose of KY‐02327 for 2 days. The luciferase activities of whole‐cell lysates were measured and normalized with β‐galactosidase activities. (n = 3) • B, C MC3T3E1 cells were treated with indicated concentrations of KY‐02327 for 2 days. β‐Catenin and α‐tubulin were detected by immunoblot (B) or immunofluorescence (C) analyses. Nuclei were counterstained with DAPI (C, blue). Scale bars, 100 μm. • D MC3T3E1 cells were treated with indicated concentrations of KY‐02327 for 14 days. The mRNA level of collagen 1a (Col1a) was measured by quantitative real‐time PCR (qRT–PCR). […] The mRNA level of osteocalcin (OCN) was measured by qRT–PCR. […] (error bars), and significance was assessed using unpaired Student's t‐test.
MC3T3E1 cells and primary calvaria cells were maintained in supplemented α‐MEM. […] For quantitative real‐time PCR (qRT–PCR), total mRNAs were extracted using TRIzol (Invitrogen), complementary DNAs were prepared using Maxime PCR PreMix (iNtRON Biotechnology, Sungnam, Korea), and the qRT–PCRs were performed using SYBR Premix Ex Taq (TaKaRa, Shiga, Japan) in the StepOnePlus Real‐Time PCR machine (Thermo Fisher Scientific, Waltham, MA). […]

[3] = system: TA-100
Description: (§1) Appendix Table S3. Bacterial reverse mutation assay with KY-02327
(§2) a Number of revertant colonies of treated plate/Number of revertant colonies of
(§3) vehicle control plate (Maron & Ames, 1983).
(§4) b Negative control. Vehicle: DMSO

[4] = system: TA-98
Description: as §1, §2, §3, §4

[5] = target: Human Ether-à-go-go Related Gene (hERG) potassium channel (Homo sapiens, UniProt Q12809); test: hERG binding assay (fluorescence polarization)
Human Ether-à-go-go Related Gene (hERG) potassium channel, sequence (Q12809 whole entry): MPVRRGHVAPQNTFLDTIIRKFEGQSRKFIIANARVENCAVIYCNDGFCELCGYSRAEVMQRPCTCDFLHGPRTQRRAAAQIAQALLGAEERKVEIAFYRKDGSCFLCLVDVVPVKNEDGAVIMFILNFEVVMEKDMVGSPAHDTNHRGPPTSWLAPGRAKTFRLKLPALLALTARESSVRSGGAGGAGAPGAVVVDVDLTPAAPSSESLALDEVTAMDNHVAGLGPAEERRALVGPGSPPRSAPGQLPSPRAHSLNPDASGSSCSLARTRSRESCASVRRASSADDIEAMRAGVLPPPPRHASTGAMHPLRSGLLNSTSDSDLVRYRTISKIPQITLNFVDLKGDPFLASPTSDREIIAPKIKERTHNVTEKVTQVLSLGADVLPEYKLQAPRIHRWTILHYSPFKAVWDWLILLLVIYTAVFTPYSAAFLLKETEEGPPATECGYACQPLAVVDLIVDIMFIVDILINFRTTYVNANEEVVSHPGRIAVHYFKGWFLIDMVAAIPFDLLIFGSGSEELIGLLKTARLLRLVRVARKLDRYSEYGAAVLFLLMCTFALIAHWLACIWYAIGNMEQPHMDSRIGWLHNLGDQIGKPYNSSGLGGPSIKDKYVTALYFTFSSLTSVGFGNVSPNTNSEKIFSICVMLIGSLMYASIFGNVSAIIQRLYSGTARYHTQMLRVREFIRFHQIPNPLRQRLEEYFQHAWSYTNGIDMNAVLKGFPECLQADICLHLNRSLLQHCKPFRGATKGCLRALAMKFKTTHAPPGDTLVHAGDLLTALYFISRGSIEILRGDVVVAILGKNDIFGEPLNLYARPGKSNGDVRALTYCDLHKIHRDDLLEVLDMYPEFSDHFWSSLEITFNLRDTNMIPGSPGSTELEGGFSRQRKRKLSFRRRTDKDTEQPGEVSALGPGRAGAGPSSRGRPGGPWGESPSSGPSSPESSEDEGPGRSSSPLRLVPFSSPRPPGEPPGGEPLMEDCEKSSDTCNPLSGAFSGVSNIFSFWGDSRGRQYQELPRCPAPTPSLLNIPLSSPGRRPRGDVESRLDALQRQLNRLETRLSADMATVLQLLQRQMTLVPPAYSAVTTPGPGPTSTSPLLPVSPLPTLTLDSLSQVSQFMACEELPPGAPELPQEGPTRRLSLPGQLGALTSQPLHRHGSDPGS

[6] = target: hERG potassium channel (Homo sapiens, UniProt Q12809); test: hERG binding assay (fluorescence polarization); conditions: human; 10 µM compound; fluorescence polarization
hERG potassium channel, sequence (Q12809 whole entry): as above

[7] = target: T1, CYP1A2 (Homo sapiens, UniProt P05177); test: in vitro; conditions: probe fluorogenic P450 substrates
T1 sequence (P05177 1-516): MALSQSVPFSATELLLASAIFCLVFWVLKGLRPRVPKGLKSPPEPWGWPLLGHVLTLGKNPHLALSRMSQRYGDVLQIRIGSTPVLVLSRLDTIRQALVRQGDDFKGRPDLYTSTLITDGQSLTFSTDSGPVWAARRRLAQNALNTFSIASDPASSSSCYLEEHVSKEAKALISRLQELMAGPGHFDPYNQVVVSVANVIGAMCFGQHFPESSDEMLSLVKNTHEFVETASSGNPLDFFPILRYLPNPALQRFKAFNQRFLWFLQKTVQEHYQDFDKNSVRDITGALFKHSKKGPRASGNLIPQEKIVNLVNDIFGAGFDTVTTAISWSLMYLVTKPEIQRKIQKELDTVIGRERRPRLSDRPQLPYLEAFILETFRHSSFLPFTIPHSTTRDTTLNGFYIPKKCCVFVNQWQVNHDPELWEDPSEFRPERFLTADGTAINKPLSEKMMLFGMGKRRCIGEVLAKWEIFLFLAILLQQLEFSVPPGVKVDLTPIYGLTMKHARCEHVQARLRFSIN

[8] = system: primary calvaria cells; test: MTT cell viability of primary calvaria cells; type: cell-based, mouse; conditions: 2 μM
Experimental: Appendix Figure S2. The effects of Dvl-CXXC5 binding small molecule inhibitors on primary calvaria cells.
A Primary calvaria cells were treated with 2 µ M of each compound for the indicated times. The cells were subjected to an MTT assay (OD590 reading) to measure cell viability. The data are the mean ± s.d. (error […]
B Primary calvaria cells were treated with 2 µ M of each compound for 4 days. ALP activity levels were visualized by ALP staining. [n =2]
(1 picture or pasted object on this page, not shown here)

Structure (SMILES)	β‐catenin protein level together with Runx2, nuclear β‐catenin [1]	mRNA level of collagen 1a (Col1a) ([2]; 14 days)	mRNA level of osteocalcin (OCN) ([2]; 21 days)	Factor (revertant colonies treated plate / vehicle control plate) ([3]; TA-100, With S-9 mix)	Revertant colonies/plate (Mean) ([3]; TA-100, With S-9 mix, dose (g/plate): KY-02327 1000, B.P 2)	Factor (revertant colonies treated plate / vehicle control plate) ([3]; TA-100, Without S-9 mix)	Revertant colonies/plate (Mean) ([3]; TA-100, Without S-9 mix, dose (g/plate): KY-02327 1000, S.A 1)	Factor (revertant colonies treated plate / vehicle control plate) ([4]; TA-98, Without S-9 mix)	Revertant colonies/plate (Mean) ([4]; TA-98, Without S-9 mix, dose (g/plate): KY-02327 1000, 2-NF 1)	genetic toxicity in bacterial reverse mutation assay ([4]; TA-98 and TA-100)	cardiotoxicity (hERG potassium channel inhibition test) [5]	inhibition at 10 µM [6]	inhibition at 10 µM [7]	cytotoxic effect (cell number and viability) [8]
CCOC(=O)c1cc2cc(O)ccc2n1CC(=O)NCCN1CCCCC1 [KY‐02327]	increased	increased	increased	1.0	117 ± 8 colonies/plate	1.0	123 ± 6 colonies/plate	1.0	19 colonies/plate	no genetic toxicity	did not show any significant cardiotoxicity	10.9 ± 2.07%	0%	
CCOC(=O)Cn1c(C(=O)OCC)cc2cc(OS(=O)(=O)c3ccc(C)cc3)ccc21 [KY‐02061]														without any cytotoxic effect
